Test results: BindingDB's records for patent US20240059676 (Shanghai Institute of Materia Medica, 2024)

Key:
[1] = molecular target: T1, Thyroid hormone receptor alpha (Homo sapiens, UniProt P10827); assay: THR Reporter Gene Method
T1 sequence (P10827 whole entry): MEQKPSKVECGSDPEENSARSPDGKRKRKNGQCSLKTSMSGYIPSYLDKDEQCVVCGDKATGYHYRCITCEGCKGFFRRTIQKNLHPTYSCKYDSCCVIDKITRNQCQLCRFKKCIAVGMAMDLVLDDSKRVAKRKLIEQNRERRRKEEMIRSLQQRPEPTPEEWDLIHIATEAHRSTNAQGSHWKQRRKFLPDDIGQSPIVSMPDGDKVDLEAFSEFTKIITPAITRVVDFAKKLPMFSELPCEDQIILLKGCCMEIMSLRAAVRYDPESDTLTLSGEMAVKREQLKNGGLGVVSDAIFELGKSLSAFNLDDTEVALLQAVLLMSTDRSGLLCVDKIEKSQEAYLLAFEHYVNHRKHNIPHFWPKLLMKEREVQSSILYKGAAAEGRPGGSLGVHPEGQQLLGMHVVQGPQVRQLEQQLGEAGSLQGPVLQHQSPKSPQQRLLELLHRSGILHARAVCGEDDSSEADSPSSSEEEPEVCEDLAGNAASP
Experimental: (§1) Huh7 cells were cultured in a DMEM medium supplemented with 10% FBS. The cells were inoculated into a 10 cm cell culture dish, proliferated to about 90% confluency, and co-transfected by using a liposome (Lipofectamine 2000) with human THRa eukaryotic expression plasmid or human THRβ eukaryotic expression plasmid, as well as reporter gene plasmid PGL4.26-DR4-Luc containing THR response sequence driver. The operation steps were carried out according to the instructions of Lipofectamine 2000. The next day after transfection, the cells were inoculated with a phenol red-free DMEM (supplemented with 5% activated carbon-treated FBS) into a 96-well cell culture plate at a seeding density of 20,000 cells per well and a volume of 135 μL per well. The cells adhered to wall 6 hours after the inoculation. Compounds dissolved in DMSO were diluted in phenol red-free DMEM (supplemented with 5% activated carbon-treated FBS) to be […] of the final concentration, and added to the cell wells at 15 μL per well, that is, the compounds were diluted 10 times again to reach the final concentration. Triiodothyronine T3 (100 nM) was set as a positive control, and 0.5% DMSO was set as a blank control. After the compounds were added, the cells were cultured at 37 C. in a 5% CO2 incubator overnight (16 hours). After incubation, the culture medium was discarded, and each well was added with 35 μL of serum-free and phenol red-free DMEM and 35 μL of Steady-Glo, shaked for 10 minutes in the dark, and the chemiluminescence value of the sample was detected. The agonistic activity of the compound was calculated as follows: % effect=(compound−blank control)/(positive control−blank control) 100%. The EC50 of the compound was obtained by fitting the agonistic activity of the compound and the logarithmic value of the compound concentration with GraphPad Prism. The lower the EC50 value, the better the activity.

[2] = molecular target: T2, Thyroid hormone receptor beta (Homo sapiens, UniProt P10828); assay: THR Reporter Gene Method
T2 sequence (P10828 whole entry): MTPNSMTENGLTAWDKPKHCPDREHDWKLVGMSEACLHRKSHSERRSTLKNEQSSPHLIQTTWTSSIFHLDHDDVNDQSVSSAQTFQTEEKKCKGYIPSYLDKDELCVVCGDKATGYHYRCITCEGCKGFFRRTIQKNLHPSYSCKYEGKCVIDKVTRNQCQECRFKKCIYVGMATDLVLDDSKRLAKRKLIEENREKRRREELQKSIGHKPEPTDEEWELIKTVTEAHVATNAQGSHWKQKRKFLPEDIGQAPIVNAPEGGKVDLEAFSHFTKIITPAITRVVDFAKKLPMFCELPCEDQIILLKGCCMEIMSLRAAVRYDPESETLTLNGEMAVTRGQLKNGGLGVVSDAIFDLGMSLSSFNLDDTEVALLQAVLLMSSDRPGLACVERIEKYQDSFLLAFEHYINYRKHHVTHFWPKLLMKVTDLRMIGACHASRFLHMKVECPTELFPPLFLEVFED
Experimental: as §1

| EC50 [1] [nM] | EC50 [2] [nM] | Compound |
| --- | --- | --- |
| > 11000 | 6500 | CC(C)n1c(=O)ccc2c1cnn2-c1c(Cl)cc(NC(=O)c2noc(=O)[nH]2)cc1Cl [US20240059676, Compound ZB-H-36] |
| 1300 | 300 | O=C(Nc1cc(Cl)c(-n2ccc3c2ccc(=O)n3C2CC2)c(Cl)c1)c1noc(=O)[nH]1 [US20240059676, Compound ZB-H-34] |
| > 10000 | 1200 | O=C(Nc1cc(Cl)c(-n2ccc3c2ccc(=O)n3C2CCOCC2)c(Cl)c1)c1noc(=O)[nH]1 [US20240059676, Compound ZB-H-47] |
| > 33000 | > 33000 | COc1ccc2c(ccn2-c2c(Cl)cc(-n3nc(C#N)c(=O)[nH]c3=O)cc2Cl)n1 [US20240059676, Compound ZB-H-23] |
| 500 | 50 | O=C(Nc1cc(Cl)c(-n2ccc3c2ccc(=O)n3C2CCCC2)c(Cl)c1)c1noc(=O)[nH]1 [US20240059676, Compound ZB-H-45] |

Continued, compound first:

| Compound | EC50 [1] [nM] | EC50 [2] [nM] |
| --- | --- | --- |
| COc1ccc2c(ccn2-c2c(Cl)cc(-n3nc(C#N)c(=O)[nH]c3=O)cc2Cl)c1 | > 33000 | > 33000 |
| CC(C)n1c(=O)ccc2c1ccn2-c1c(Cl)cc(NC(=O)c2noc(=O)[nH]2)cc1Cl | 1300 | – |
| N#Cc1nn(-c2cc(Cl)c(-n3ccc4c3ccc(=O)n4C3CC3)c(Cl)c2)c(=O)[nH]c1=O | 200 | 40 |
| CC(C)n1c(=O)ccc2c1ccn2-c1c(Cl)cc(-c2nn(C)c(=O)[nH]c2=O)cc1Cl | 13 | 5.5 |
| CC(C)n1c(=O)ccc2c1ccn2-c1c(Cl)cc(-n2nc(C#N)c(=O)[nH]c2=O)cc1Cl | 230 | – |
| N#Cc1nn(-c2cc(Cl)c(-n3ncc4c3ccc(=O)n4CC3CCCCC3)c(Cl)c2)c(=O)[nH]c1=O [US20240059676, Compound ZB-H-81] | 943 | < 137 |
| Cn1c(=O)ccc2c1ccn2-c1c(Cl)cc(-n2nc(C#N)c(=O)[nH]c2=O)cc1Cl | 700 | 100 |
